According to patent publication US20240252472A1, “COMBINATIONS FOR TREATING CANCER” (Purdue Pharma L.P., priority 2023, published 2024):

How the values were obtained:
[1] = tested on: MM cells (MOLP-8); assay: Daratumumab-mediated ADCP, macrophage/myeloma co-culture; assay type: cell-based, human; settings: MM cells pre-treated 2.5 μM 48 hours; macrophages 3:1, daratumumab 4 hours; vs not pre-treated
Method: Mononuclear cells were isolated from buffy coats from healthy donors using density gradient centrifugation with Ficoll and subsequently CD14+ monocytes were magnetically isolated in an autoMACS® Pro Separator. Monocytes were cultured for 7 days in the presence of GM-CSF (10 ng/mL) to induce differentiation to macrophages. For the evaluation of ADCP, myeloma cells were either untreated or pre-treated with 2.5 μM EDO-S101 for 48 hours. Cells were washed to remove EDO-S101 from the culture medium, and untreated and pre-treated myeloma cells were stained with PKH26. Co-cultures of macrophages and myeloma cells^PKH26+ (ratio 3:1) were incubated with different concentrations of daratumumab or the corresponding isotype control for 4 hours at 37° C. ADCP was evaluated by flow cytometry with the panel: CD11b-FITC/PKH26/CD138-APC. […]
ADCP was quantified as the percentage of double positive events using the following formula: […]
‘Treatment double positive cells’ refers to the proportion of macrophages (as a percentage) determined to have phacocytosed MM cells in co-cultures treated with daratumumab. ‘Control double positive cells’ refers to the proportion of macrophages (as a percentage) determined to have phacocytosed MM cells in co-cultures that were ED-S101 untreated or pre-treated but not treated with daratumumab.
Elimination of myeloma cells was calculated using the following formula: […]

[2] = tested on: CD38; assay: CD38 surface expression in MM cell lines by flow cytometry; assay type: cell-based, human
Method: Cell Treatment with EDO-S101 MM cells (MM1S, JJN3, KMS12-BM, RPMI-8226, U266, MOLP-8) were either treated with a control (0 μM EDO-S101, DMSO vehicle) or treated with EDO-S101 (0.1, 0.5, 1 or 2.5 μM in DMSO) for 48 hours, unless indicated otherwise.
For surface staining, cells were incubated with the appropriate antibodies and 7AAD (Immunostep) for 15 min in the dark. Data were acquired using a FACSCalibur cytometer (BD Biosciences) and analyzed using Infinicyt™ software (Cytognos). Specifically, the expression of CD38 or ligands for NK cell activating receptors (MICA, MICB, ULBP1-3, PVR and CD112) in MM cell lines was determined on the viable cell population (7AAD-). In primary myeloma cells, the expression of CD38 was analyzed over the viable myeloma population using the panel CD138-FITC/CD56-PE/7AAD/CD38-APC, whereas MICA/B-AF488/CD56-PE/7AAD/CD38-APC panel was used to determine MICA/B expression. Normalized median fluorescence intensity (MFI) was calculated by dividing median fluorescence obtained with the specific antibody by median fluorescence of the corresponding isotype control. MFI for each treatment was expressed as a percentage relative to the control (100%, cells cultured in media with DMSO). […]

[3] = tested on: MICA; assay: MICA expression on MM patients' plasma cells ex vivo; assay type: cell-based, human; settings: 6 out of the 9 patients analyzed, 48 hours
Method: For surface staining, cells were incubated with the appropriate antibodies and 7AAD (Immunostep) for 15 min in the dark. Data were acquired using a FACSCalibur cytometer (BD Biosciences) and analyzed using Infinicyt™ software (Cytognos). Specifically, the expression of CD38 or ligands for NK cell activating receptors (MICA, MICB, ULBP1-3, PVR and CD112) in MM cell lines was determined on the viable cell population (7AAD-). In primary myeloma cells, the expression of CD38 was analyzed over the viable myeloma population using the panel CD138-FITC/CD56-PE/7AAD/CD38-APC, whereas MICA/B-AF488/CD56-PE/7AAD/CD38-APC panel was used to determine MICA/B expression. Normalized median fluorescence intensity (MFI) was calculated by dividing median fluorescence obtained with the specific antibody by median fluorescence of the corresponding isotype control. MFI for each treatment was expressed as a percentage relative to the control (100%, cells cultured in media with DMSO).

[4] = tested on: MICB mRNA; assay: MICB mRNA by RT-qPCR in MM cell lines; assay type: cell-based, human; settings: all four MM cell lines except MOLP-8; 1 and 2.5 μM, 36 hours
Method: Real time quantitative PCR (RT-qPCR) Total RNA was isolated using the RNeasy Mini Kit (Qiagen, Hilden, Germany). Following reverse transcription, PCR was performed using TaqMan Gene Expression Assays (Applied Biosystems, Foster City, CA, USA): CD38 (Hs01120071_m1), MICA (Hs00741286_m1), MICB (Hs00792952_m1) and GAPDH (Hs99999905_m1). The results were expressed as fold change relative to expression of the target gene in control cells, using endogenous expression of GAPDH for normalization.

[5] = tested on: subcutaneous plasmacytoma derived from MM1.S cells; assay: Second subcutaneous plasmacytoma model, CB17-SCID mice; assay type: in vivo; settings: EDO-S101 30 mg/kg i.v. weekly, daratumumab 8 mg/kg i.p. weekly, 4 weeks; vehicle 34 days
Text: For the second subcutaneous human plasmacytoma model, CB17-SCID mice (The Jackson Laboratory) were used. CB17-SCID mice were randomised into groups (n=5). The design of the experiment (treatment doses and time schedule) was identical to the experiment described above with NSG mice except for the inoculation of NK cells, since CB17-SCID mice have their own functional NK cells.
For the second subcutaneous human plasmacytoma model, CB17-SCID mice (20 female mice, 5-6 weeks old; from The Jackson Laboratory) were used. The design of the experiment (treatment doses and time schedule) was identical to the one performed with NSG mice except for the inoculation of human NK cells, since CB17-SCID mice hold their own functional NK cells (Dorshkind et al., J Immunol 134:3798-3801, 1985).
In the second xenograft plasmacytoma model, CB17-SCID mice bearing a subcutaneous plasmacytoma derived from MM1.S cells were randomized to receive vehicle, daratumumab, EDO-S101 or the double combination. Mice were treated with EDO-S101 on Mondays and daratumumab was administered on Tuesdays. […] Furthermore, statistical differences in survival were also found between the combination vs vehicle (58 days±2.739 vs 34 days±2.191 days, respectively; p=0.003).

In the case of `Cn1c(CCCCCCC(=O)NO)nc2cc(N(CCCl)CCCl)ccc21` [EDO-S101, 7-(5-(bis(2-chloroethyl)amino)-1-methyl-1H-benzo[d]imidazol-2-yl)-N-hydroxyheptanamide], the “ADCP: percentage of double positive events (macrophages that have phagocytosed myeloma cells)” value [1] is reported as “increased”, the “ADCP: percentage of eliminated MM cells” value [1] is reported as “decreased” and the “percentage of CD38+ cell population” value ([2]; JJN3 cell line, 1 and 2.5 μM) is reported as “significantly increased”. For the same molecule, the “CD38 surface expression (normalized MFI)” value ([2]; MM1.S, JJN3, KMS12-BM, RPMI-8226, U226, MOLP-8, 0.1, 0.5, 1 and 2.5 μM, 48 hours, relative to DMSO control, only exception NCI-H929) was “significantly increased”, the “expression of MICA in tinostamustine-treated vs DMSO-treated patient cells” value [3] was “at least twice” and the “expression of MICB at the mRNA level” value [4] was “increased”. The overall median survival [5] was 51 days.
